# Experimental data from patent publication US11339130B1 (Blade Therapeutics, Inc., priority 2016, dated 2022).
# Key:
# Human Calpain 1/NS1 = biological target: T1, Human Calpain 1/NS1 (Homo sapiens, UniProt P07384); assay: Calpain inhibition continuous fluorescence (FRET) assay, Human Calpain 1/NS1; type: biochemical; details: read-out: Human Calpain 1/NS1 IC50
# T1 sequence (P07384 1-714): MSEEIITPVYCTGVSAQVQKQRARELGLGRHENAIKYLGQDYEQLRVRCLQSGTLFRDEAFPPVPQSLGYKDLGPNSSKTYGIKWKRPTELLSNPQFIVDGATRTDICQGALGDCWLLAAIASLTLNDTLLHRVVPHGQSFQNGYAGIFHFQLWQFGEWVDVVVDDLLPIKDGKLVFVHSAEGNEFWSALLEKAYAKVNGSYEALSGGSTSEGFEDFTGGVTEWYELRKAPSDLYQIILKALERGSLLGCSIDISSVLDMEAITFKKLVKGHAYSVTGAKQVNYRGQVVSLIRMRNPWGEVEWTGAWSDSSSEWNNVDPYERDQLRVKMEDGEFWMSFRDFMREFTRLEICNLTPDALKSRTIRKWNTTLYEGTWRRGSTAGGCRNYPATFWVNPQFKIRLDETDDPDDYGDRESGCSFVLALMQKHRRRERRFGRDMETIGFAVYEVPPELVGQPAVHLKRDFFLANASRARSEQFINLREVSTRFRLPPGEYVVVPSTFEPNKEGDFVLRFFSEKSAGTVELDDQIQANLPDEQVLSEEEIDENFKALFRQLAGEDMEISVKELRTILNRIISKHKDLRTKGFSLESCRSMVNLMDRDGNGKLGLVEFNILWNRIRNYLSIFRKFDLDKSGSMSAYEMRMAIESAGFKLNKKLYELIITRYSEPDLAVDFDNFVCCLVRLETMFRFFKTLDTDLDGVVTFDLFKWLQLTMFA
# T1 sequence (P04632 1-268 partner): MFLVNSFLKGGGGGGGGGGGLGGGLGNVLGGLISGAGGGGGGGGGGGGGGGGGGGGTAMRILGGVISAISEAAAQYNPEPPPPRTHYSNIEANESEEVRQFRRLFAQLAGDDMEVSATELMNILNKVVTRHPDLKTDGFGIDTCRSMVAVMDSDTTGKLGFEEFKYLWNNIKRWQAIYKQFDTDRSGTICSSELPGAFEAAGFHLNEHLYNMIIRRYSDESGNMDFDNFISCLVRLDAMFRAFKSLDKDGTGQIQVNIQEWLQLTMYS
# How it was run: (§1)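 Continuous FRET read (ex 490/em 520 nm, 10 min) of calpain 1, 2 or 9 cleaving an internally quenched 5-FAM peptide, triggered by substrate with CaCl2 after enzyme–inhibitor incubation at ambient 25 °C, pH 7.5 Tris/NaCl/DTT buffer. IC50 from initial rates (1-5 min) via 4-parameter fit.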
# Human Calpain 2/NS1 = biological target: T2, Human Calpain 2/NS1 (Homo sapiens, UniProt P17655); assay: Calpain inhibition continuous fluorescence (FRET) assay, Human Calpain 2/NS1; type: biochemical; details: read-out: Human Calpain 2/NS1 IC50
# T2 sequence (P17655 1-700): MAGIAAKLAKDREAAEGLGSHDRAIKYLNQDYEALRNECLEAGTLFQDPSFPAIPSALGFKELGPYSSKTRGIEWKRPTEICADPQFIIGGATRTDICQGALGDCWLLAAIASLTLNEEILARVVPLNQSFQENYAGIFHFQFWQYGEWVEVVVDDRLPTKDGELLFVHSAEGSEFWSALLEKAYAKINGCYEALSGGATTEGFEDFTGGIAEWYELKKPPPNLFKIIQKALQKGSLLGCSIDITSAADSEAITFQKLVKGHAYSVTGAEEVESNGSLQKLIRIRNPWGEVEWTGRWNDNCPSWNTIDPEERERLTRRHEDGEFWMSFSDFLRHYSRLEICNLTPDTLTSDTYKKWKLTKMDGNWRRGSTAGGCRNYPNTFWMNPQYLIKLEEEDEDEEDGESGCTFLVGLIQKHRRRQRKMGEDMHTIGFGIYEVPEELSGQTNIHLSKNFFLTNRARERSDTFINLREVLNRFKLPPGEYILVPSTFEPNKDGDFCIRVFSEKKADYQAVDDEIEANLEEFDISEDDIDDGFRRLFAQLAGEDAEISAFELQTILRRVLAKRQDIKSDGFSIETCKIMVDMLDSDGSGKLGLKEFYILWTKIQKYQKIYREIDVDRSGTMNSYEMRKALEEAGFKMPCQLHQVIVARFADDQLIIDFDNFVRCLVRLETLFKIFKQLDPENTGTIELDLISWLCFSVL
# T2 sequence (P04632 1-268 partner): T1 sequence (P04632 1-268 partner)
# How it was run: as §1
# Human Calpain 9/NS1 = biological target: T3, Human Calpain 9/NS1 (Homo sapiens, UniProt O14815); assay: Calpain inhibition continuous fluorescence (FRET) assay, Human Calpain 9/NS1; type: biochemical; details: read-out: Human Calpain 9/NS1 IC50
# T3 sequence (O14815 1-690): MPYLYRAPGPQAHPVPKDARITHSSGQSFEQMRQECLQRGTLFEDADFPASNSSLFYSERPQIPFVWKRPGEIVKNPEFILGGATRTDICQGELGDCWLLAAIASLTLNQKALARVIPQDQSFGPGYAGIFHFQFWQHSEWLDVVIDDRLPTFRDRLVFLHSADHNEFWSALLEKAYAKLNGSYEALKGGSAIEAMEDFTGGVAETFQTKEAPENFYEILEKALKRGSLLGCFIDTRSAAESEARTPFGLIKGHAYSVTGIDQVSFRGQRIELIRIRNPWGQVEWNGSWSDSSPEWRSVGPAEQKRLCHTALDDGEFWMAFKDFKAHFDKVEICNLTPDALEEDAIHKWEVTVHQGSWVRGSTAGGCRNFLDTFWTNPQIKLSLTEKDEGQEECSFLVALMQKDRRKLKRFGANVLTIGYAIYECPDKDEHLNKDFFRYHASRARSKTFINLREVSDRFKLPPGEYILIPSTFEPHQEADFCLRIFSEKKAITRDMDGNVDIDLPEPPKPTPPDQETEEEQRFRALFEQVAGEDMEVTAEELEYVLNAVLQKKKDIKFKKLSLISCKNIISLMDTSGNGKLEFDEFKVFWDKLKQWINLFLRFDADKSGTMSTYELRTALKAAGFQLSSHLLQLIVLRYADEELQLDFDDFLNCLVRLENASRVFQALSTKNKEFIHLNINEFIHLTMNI
# T3 sequence (P04632 1-268 partner): T1 sequence (P04632 1-268 partner)
# How it was run: as §1
# [1] = tested on: Calpain activity in SH-SY5Y cells (SBDP-150); assay: SH-SY5Y Spectrin western blot assay (SBDP-150 breakdown product, A23187-induced); type: cell-based; details: Homo sapiens; SH-SY5Y cells, A23187-induced SBDP-150, western blot; read-out: SH-SY5Y Spectrin IC50
# [2] = tested on: Calpain activity in SH-SY5Y cells; assay: SH-SY5Y + AMC fluorescence assay (Suc-LLVY-AMC substrate); type: cell-based; details: read-out: SH-SY5Y + AMC IC50
Compound,IC50 (Human Calpain 1/NS1) [µM],IC50 (Human Calpain 2/NS1) [µM],IC50 (Human Calpain 9/NS1) [µM],IC50 [1] [µM],IC50 [2] [µM]
"Cc1cc(C(=O)NC(C=O)Cc2ccccc2)n(-c2ccccn2)n1 (centres unmarked) [Compound 398, 3-methyl-N-(1-oxo-3-phenylpropan-2-yl)-1-(pyridin-2-yl)-1H-pyrazole-5-carboxamide]",< 3,< 3,< 3,> 25,> 25
"Cc1cc(C(=O)NC(C=O)Cc2ccccc2)n(-c2ccc(C(F)(F)F)cn2)n1 (centres unmarked) [Compound 399, 3-methyl-N-(1-oxo-3-phenylpropan-2-yl)-1-(5-(trifluoromethyl)pyridin-2-yl)-1H-pyrazole-5-carboxamide]",< 3,< 3,3 to 10,> 25,> 25
"Cc1cc(C(=O)NC(C=O)Cc2ccccc2)n(-c2cccc(COCc3ccccc3)c2)n1 (centres unmarked) [Compound 400, 1-(3-((benzyloxy)methyl)phenyl)-3-methyl-N-(1-oxo-3-phenylpropan-2-yl)-1H-pyrazole-5-carboxamide]",< 3,< 3,< 3,> 25,> 25
"N#Cc1ccc(-c2nn(C3CC3)cc2C(=O)NC(Cc2ccccc2)C(=O)C(N)=O)cn1 (centres unmarked) [Compound 413, N-(4-amino-3,4-dioxo-1-phenylbutan-2-yl)-3-(6-cyanopyridin-3-yl)-1-cyclopropyl-1H-pyrazole-4-carboxamide]",< 3,< 3,< 3,> 25,> 25
"CC(C)C[C@H](NC(=O)c1cn(C)nc1-c1ccccc1)C(=O)C(N)=O [Compound 415, (S)—N-(1-amino-5-methyl-1,2-dioxohexan-3-yl)-1-methyl-3-phenyl-1H-pyrazole-4-carboxamide]",< 3,< 3,< 3,> 25,> 25
"Cn1cc(C(=O)N[C@@H](CC(C)(C)C)C(=O)C(N)=O)c(-c2ccccc2)n1 [Compound 416, (S)—N-(1-amino-5,5-dimethyl-1,2-dioxohexan-3-yl)-1-methyl-3-phenyl-1H-pyrazole-4-carboxamide]",< 3,< 3,< 3,> 25,> 25
"Cn1cc(C(=O)NC(CCc2ccccc2)C(=O)C(N)=O)c(-c2ccccc2)n1 (centres unmarked) [Compound 417, N-(1-amino-1,2-dioxo-5-phenylpentan-3-yl)-1-methyl-3-phenyl-1H-pyrazole-4-carboxamide]",< 3,< 3,< 3,> 25,> 25
"Cn1cc(C(=O)NC(Cc2cc(Cl)cc(Cl)c2)C(=O)C(N)=O)c(-c2ccccc2)n1 (centres unmarked) [Compound 418, N-(4-amino-1-(3,5-dichlorophenyl)-3,4-dioxobutan-2-yl)-1-methyl-3-phenyl-1H-pyrazole-4-carboxamide]",< 3,< 3,< 3,10 to 25,10 to 25
"CCCC[C@H](NC(=O)c1cn(C)nc1-c1ccccc1)C(=O)C(N)=O [Compound 419, (S)—N-(1-amino-1,2-dioxoheptan-3-yl)-1-methyl-3-phenyl-1H-pyrazole-4-carboxamide]",< 3,< 3,< 3,10 to 25,> 25
"Cn1cc(C(=O)NC(CCC(F)(F)F)C(=O)C(N)=O)c(-c2ccccc2)n1 (centres unmarked) [Compound 422, N-(1-amino-6,6,6-trifluoro-1,2-dioxohexan-3-yl)-1-methyl-3-phenyl-1H-pyrazole-4-carboxamide]",> 10,3 to 10,3 to 10,> 25,> 25

# The next lines start with the values.
IC50 (Human Calpain 1/NS1) [µM],IC50 (Human Calpain 2/NS1) [µM],IC50 (Human Calpain 9/NS1) [µM],IC50 [1] [µM],IC50 [2] [µM],Compound
< 3,< 3,< 3,< 10,> 25,"O=CC(Cc1ccccc1)NC(=O)c1nsnc1-c1ccccc1 (centres unmarked) [Compound 401, N-(1-oxo-3-phenylpropan-2-yl)-4-phenyl-1,2,5-thiadiazole-3-carboxamide]"
< 3,< 3,< 3,10 to 25,> 25,"Cc1nc(-c2ccccc2F)c(C(=O)NC(C=O)Cc2ccccc2)o1 (centres unmarked) [Compound 402, 4-(2-fluorophenyl)-2-methyl-N-(1-oxo-3-phenylpropan-2-yl)oxazole-5-carboxamide]"
< 3,< 3,< 3,10 to 25,10 to 25,"COc1cccc(-c2nn(C)cc2C(=O)NC(Cc2ccccc2)C(=O)C(N)=O)c1 (centres unmarked) [Compound 407, N-(4-amino-3,4-dioxo-1-phenylbutan-2-yl)-3-(3-methoxyphenyl)-1-methyl-1H-pyrazole-4-carboxamide]"
> 10,3 to 10,> 10,10 to 25,< 10,"Cn1cc(C(=O)NC(Cc2ccccc2)C(=O)C(N)=O)c(Cn2ncc3cnccc32)n1 (centres unmarked) [Compound 408, 3-((1H-pyrazolo[4,3-c]pyridin-1-yl)methyl)-N-(4-amino-3,4-dioxo-1-phenylbutan-2-yl)-1-methyl-1H-pyrazole-4-carboxamide]"
< 3,< 3,< 3,< 10,> 25,"COc1ccc(C[C@H](NC(=O)c2cn(C)nc2-c2ccccc2)C(=O)C(N)=O)cc1 [Compound 420, (S)—N-(4-amino-1-(4-methoxyphenyl)-3,4-dioxobutan-2-yl)-1-methyl-3-phenyl-1H-pyrazole-4-carboxamide]"
< 3,< 3,< 3,10 to 25,< 10,"Cn1cc(C(=O)N[C@@H](Cc2ccc(O)cc2)C(=O)C(N)=O)c(-c2ccccc2)n1 [Compound 421, (S)—N-(4-amino-1-(4-hydroxyphenyl)-3,4-dioxobutan-2-yl)-1-methyl-3-phenyl-1H-pyrazole-4-carboxamide]"
